The values that follow come from PubChem BioAssay (NCI).

Holding throughout (assay): DTP human tumour cell line panel, 48 h
The subject of assay [1] is KM12 colon.
Assay [2] relates to MALME-3M melanoma.
Assay [3] has as its system MCF7 breast.
In assay [4] the test system is NCI-H226 lung.
In assay [5] the test system is SF-295 CNS.
For assay [6], the system named is SNB-19 CNS.
Assay [7] relates to SW-620 colon.
Assay [8] relates to T-47D breast.
The subject of assay [9] is UACC-257 melanoma.
Assay [10] has as its system SNB-75 CNS.

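Dose response: 5 concentrations. Exposure: 48 h. Format: 96-well plates. Endpoint: linear interpolation; highest concentration if not reached. GI50: concentration for 50% inhibition of growth. TGI denotes the concentration required for complete inhibition of growth.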

Usually TGI stands for the concentration at which net growth stops. A low value points to greater sensitivity of the cells. For orientation: GI50 means the concentration at which growth is held to half of that of the control.

Take `O=C1[C@@H]2Cc3c([nH]c4ccccc34)C(C3CCCCC3)N2C(=O)[C@@H]2CCCN12` (some centres undefined): the TGI in assay [1] is 58.4 µM; in assay [2], 51.1 µM; in [3], greater than 100 µM; in assay [4] it was greater than 100 µM; in [5] it was 61.1 µM; in [6] it was greater than 100 µM. The TGI in assay [7] is greater than 100 µM; in [8], greater than 100 µM; in [9], 80.7 µM.

For `CC1=CC[C@@H]2CC[C@]3(C)[C@H](CC[C@@H]4[C@@]5(C)CCCNC(C)(C)[C@@H]5CC[C@]43C)[C@H]2[C@@H]1C`, the GI50 was 1.77 µM in [2], 1.87 µM in assay [5], 1.98 µM in assay [10] and 1.86 µM in [9]. The TGI in [2] amounted to 3.48 µM; in assay [5], 3.42 µM; in assay [10], 3.84 µM; in assay [9] it was 3.63 µM.

As for `CN1CC(c2ccccc2)N(CCCCN2CC(c3ccccc3)N(C)CC2c2ccccc2)CC1c1ccccc1` (centres undefined), the TGI in assay [1] was greater than 100 µM; in assay [2], 81.8 µM; in assay [3], greater than 100 µM; in [4] it was greater than 100 µM; in assay [5], greater than 100 µM; in [6], greater than 100 µM. Also, the figures for the TGI in assay [10], in assay [7] and in assay [9] were greater than 100 µM, greater than 100 µM and 42.6 µM, respectively.

For the molecule `C=C1C[C@]23C[C@@]1(O)CC[C@H]2[C@@]12C=C[C@H](O)[C@@](C)(C(=O)O1)[C@H]2[C@@H]3C(=O)O`, the concentration for total growth inhibition (TGI) in [1], in assay [2], in assay [4], in assay [5], in assay [6] and in assay [10] was greater than 100 µM throughout. Also, the TGI in [7] and in [9] was greater than 100 µM in each case.

`CC(C)n1c(=O)n(-c2ccccc2)n(C(C)(C)C)c1=O`: the TGI in [1], in assay [2], in assay [3], in assay [4], in assay [5] and in [6] was greater than 100 µM each time. Besides, the TGI in assay [10], in assay [7] and in assay [9] was greater than 100 µM in each case.

For the molecule `O=C(O)c1ccc(Nc2nc3cc(C(F)(F)F)ccc3nc2C(=O)O)cc1`, the TGI in assay [1], in assay [2], in assay [3], in assay [4], in [5] and in assay [6] was greater than 100 µM each time. Further, the TGI in assay [10] and in [7] was greater than 100 µM each time.

Regarding `Cc1ccc(O)c(C2=NNC(c3cccc(Br)c3)C2)c1` (centres undefined), the TGI is greater than 100 µM in assay [1]; greater than 100 µM in [2]; greater than 100 µM in assay [3]; greater than 100 µM in assay [4]; greater than 100 µM in [5]; 76.3 µM in [6]. In addition, the TGI in assay [7], in assay [8] and in assay [9] was greater than 100 µM throughout.

For `O=C(NCCO)c1ccc(Cl)cc1`, the TGI in assay [1], in assay [2], in assay [4], in assay [5], in [6] and in assay [10] was greater than 100 µM in each case. In addition, the TGI in assay [7], in assay [8] and in assay [9] was greater than 100 µM throughout.

As to `Cc1ccc(S(=O)(=O)N2CCN(CCN(C)CCN3CCN(S(=O)(=O)c4ccc(C)cc4)CC3)CC2)cc1`, the total growth inhibition concentration (TGI) was 31.6 µM in assay [1]; 33.7 µM in assay [2]; 32.8 µM in assay [3]; 79.7 µM in assay [4]; 31.9 µM in [5]; 69.4 µM in assay [6]. For the same molecule, the TGI amounted to 31.7 µM in assay [7], 48 µM in assay [8] and 30.5 µM in assay [9].

As for `CC[N+](CC)=c1ccc2nc3c(cc(N)c4ccccc43)oc-2c1`, the GI50 was 0.247 µM in assay [1]; 0.111 µM in assay [5]; 0.318 µM in assay [6]; 0.61 µM in assay [10]; 1.56 µM in [9]. In addition, the TGI in assay [1] is 0.666 µM; in assay [5] it was 0.288 µM; in assay [6], 1.04 µM; in assay [10], 1.88 µM; in [9], 3.05 µM.

Take `CSc1nncc(-c2cc3c(c(SC)n2)CCC3)n1`: the TGI in assay [1], in assay [4], in [5], in assay [6], in assay [10] and in assay [7] was greater than 100 µM in each case. This molecule also had a TGI in assay [9] greater than 100 µM.

In the case of `O=C(N=Nc1ccccc1Br)NNc1ccccc1Br`, the TGI in assay [2], in assay [4], in assay [6], in assay [10], in assay [7] and in assay [8] was greater than 100 µM in each case. In [9], this molecule yielded a TGI greater than 100 µM.

Consider `COc1ccc(-c2c(C#N)c(-c3ccccc3)n(NS(=O)(=O)c3ccccc3)c(=O)c2C#N)cc1`, for which the TGI in assay [1], in assay [2], in assay [3], in assay [4], in [5] and in [6] was greater than 100 µM each time. The TGI in assay [10], in [7] and in assay [9] was greater than 100 µM each time.

On to `CCOC(=O)c1sc2c(c1OC(=O)c1ccccc1)c(=O)n(-c1ccccc1)c(=S)n2-c1ccccc1`, for which the TGI was greater than 100 µM in assay [1]; 54.5 µM in assay [2]; greater than 100 µM in assay [3]; greater than 100 µM in assay [4]; greater than 100 µM in assay [5]; greater than 100 µM in assay [6]. For the same molecule, the TGI in [7], in assay [8] and in [9] was greater than 100 µM throughout.

Turning to `N#Cc1c2c(c(N3CCOCC3)n3c1nc1ccccc13)CCCC2`, the TGI is greater than 100 µM in [1]; 34 µM in [2]; 87.1 µM in [3]; 32.5 µM in [4]; 34.8 µM in [5]; 32 µM in [6]. The TGI was found to be 29 µM in [7], 41.5 µM in assay [8] and 65.9 µM in assay [9].
